# Literature values, collected in patent publication US20080103122A1, “PHARMACEUTICAL COMBINATIONS FOR LIPID MANAGEMENT AND IN THE TREATMENT OF ATHEROSCLEROSIS AND HEPATIC STEATOSIS” (Schering Corporation, priority 2006, published 2008).
# Tested on: atherosclerotic plaques
# Details: mice; Zaiss et al., Circulation 100 (18 Suppl. I): 255 (1999)
structure (smiles),measurement,value
"Cc1cc(C)c2c3ccccc3n(Cc3ccc([C@@H](C(=O)N[C@@H](CO)c4ccccc4)C4CCCC4)cc3)c2n1 [implitiapide, 2,2-(S)-cyclopentyl-2-{[4-(2,4-dimethyl-alpha-carbolin-9-yl)methyl]phenyl}acetic acid-(R)-phenyl-glycinol-amide]",formation of atherosclerotic plaques,prevents the formation of atherosclerotic plaques
